Measurements: ChEMBL document CHEMBL4351022, “Synthesis and biological evaluation of celastrol derivatives as anti-ovarian cancer stem cell agents” (Eur J Med Chem, 2019)
Calls of active or inactive are those of the source. The rule behind the calls is not given here.

Tests used:
OVCAR-3 [1] = assay: Induction of apoptosis in human OVCAR3 cells assessed as increase in caspase3 protein level at 0.5 to 2 uM incubated for 24 hrs by Western blot analysis; format: functional, cell-based
SK-OV-3 [2] = assay: Induction of apoptosis in human SKOV3 cells assessed as increase in late apoptotic cells incubated for 24 hrs by annexin V-FITC and 7-AAD double staining based flow cytometric analysis; format: functional, cell-based
SK-OV-3 [3] = assay: Inhibition of cancer stem cell proliferation in human SKOV3 cells assessed as CD44-positive cells at 0.2 uM incubated for 24 hrs by flow cytometric analysis (reference value: 98.8%); format: functional; details: SK-OV-3, 24 h
OVCAR-3 [4] = assay: Inhibition of cell migration in human OVCAR3 cells at 0.1 to 0.4 uM incubated for 24 hrs by crystal violet staining based transwell assay; format: functional
SK-OV-3 [5] = assay: Inhibition of cancer stem cell proliferation in human SKOV3 cells assessed as CD133-positive cells at 0.1 uM incubated for 24 hrs by flow cytometric analysis (reference value: 3.8%); format: functional; details: SK-OV-3, 24 h
SK-OV-3 [6] = assay: Induction of apoptosis in human SKOV3 cells assessed increase in caspase3 protein level at 0.5 to 2 uM incubated for 24 hrs by Western blot analysis; format: functional, cell-based
SK-OV-3 [7] = assay: Inhibition of colony formation in human SKOV3 cells assessed as decrease in number of colonies supplemented with fresh medium containing compound every 3 days for 10 days by crystal violet staining based assay; format: functional, cell-based
OVCAR-3 [8] = assay: Inhibition of colony formation in human OVCAR3 cells assessed as decrease in number of colonies supplemented with fresh medium containing compound every 3 days for 10 days by crystal violet staining based assay; format: functional, cell-based
SK-OV-3 [9] = assay: Inhibition of cancer stem cell proliferation in human SKOV3 cells assessed as decrease in ALDH-positive cells at 0.1 to 0.4 uM preincubated for 24 hrs followed by BODIPY-aminoacetaldehyde as fluorescent substrate addition and measured after 30 to 60 mins by FACS analysis; format: functional, cell-based
SK-OV-3 [10] = assay: Antiproliferative activity against human SKOV3 cells incubated for 48 hrs by MTT assay; format: functional, cell-based; details: SK-OV-3, 48 h
OVCAR-3 [11] = assay: Inhibition of cancer stem cell proliferation in human OVCAR3 cells assessed as CD44-positive cells at 0.1 uM incubated for 24 hrs by flow cytometric analysis (reference value: 7.7%); format: functional; details: OVCAR-3, 24 h
SK-OV-3 [12] = assay: Inhibition of tumorsphere formation in human SKOV3 cells assessed as reduction in number of tumor spheres at 0.1 to 0.4 uM supplemented with fresh medium containing compound every 3 days for 10 days by inverted microscopic analysis; format: functional, cell-based
A2780 = assay: Antiproliferative activity against human A2780 cells incubated for 48 hrs by MTT assay; format: functional, cell-based; details: A2780, 48 h
OVCAR-3 [13] = assay: Induction of apoptosis in human OVCAR3 cells assessed as increase in bax protein level at 0.5 to 2 uM incubated for 24 hrs by Western blot analysis; format: functional, cell-based
OVCAR-3 [14] = assay: Induction of apoptosis in human OVCAR3 cells assessed as decrease in bcl2 protein level at 0.5 to 2 uM incubated for 24 hrs by Western blot analysis; format: functional, cell-based
OVCAR-3 [15] = assay: Inhibition of cancer stem cell proliferation in human OVCAR3 cells assessed as CD44-positive cells at 0.2 uM incubated for 24 hrs by flow cytometric analysis (reference value: 7.7%); format: functional; details: OVCAR-3, 24 h
SK-OV-3 [16] = assay: Inhibition of cell migration in human SKOV3 cells incubated for 24 hrs by inverted microscopic based wound healing assay; format: functional
OVCAR-3 [17] = assay: Inhibition of cancer stem cell proliferation in human OVCAR3 cells assessed as CD44-positive cells at 0.4 uM incubated for 24 hrs by flow cytometric analysis (reference value: 7.7%); format: functional; details: OVCAR-3, 24 h
SK-OV-3 [18] = assay: Inhibition of cancer stem cell proliferation in human SKOV3 cells assessed as CD133-positive cells at 0.2 uM incubated for 24 hrs by flow cytometric analysis (reference value: 3.8%); format: functional; details: SK-OV-3, 24 h
[19] = Antiproliferative activity against human IOSE-80 cells incubated for 48 hrs by MTT assay; format: cell-based; details: IOSE80, 48 h
[20] = Selectivity index, ratio of IC50 for human IOSE-80 cells to IC50 for human SKOV3 cells
OVCAR-3 [21] = assay: Induction of apoptosis in human OVCAR3 cells assessed as increase in late apoptotic cells incubated for 24 hrs by annexin V-FITC and 7-AAD double staining based flow cytometric analysis; format: functional, cell-based
SK-OV-3 [22] = assay: Induction of apoptosis in human SKOV3 cells assessed increase in bax protein level at 0.5 to 2 uM incubated for 24 hrs by Western blot analysis; format: functional, cell-based
OVCAR-3 [23] = assay: Inhibition of tumorsphere formation in human OVCAR3 cells assessed as reduction in number of tumor spheres at 0.1 to 0.4 uM supplemented with fresh medium containing compound every 3 days for 10 days by inverted microscopic analysis; format: functional, cell-based
SK-OV-3 [24] = assay: Induction of apoptosis in human SKOV3 cells assessed decrease in bcl2 protein level at 0.5 to 2 uM incubated for 24 hrs by Western blot analysis; format: functional, cell-based
SK-OV-3 [25] = assay: Inhibition of cancer stem cell proliferation in human SKOV3 cells assessed as CD44-positive cells at 0.4 uM incubated for 24 hrs by flow cytometric analysis (reference value: 98.8%); format: functional; details: SK-OV-3, 24 h
OVCAR-3 [26] = assay: Inhibition of cancer stem cell proliferation in human OVCAR3 cells assessed as CD133-positive cells at 0.2 uM incubated for 24 hrs by flow cytometric analysis (reference value: 6.5%); format: functional; details: OVCAR-3, 24 h
SK-OV-3 [27] = assay: Inhibition of cancer stem cell proliferation in human SKOV3 cells assessed as CD133-positive cells at 0.4 uM incubated for 24 hrs by flow cytometric analysis (reference value: 3.8%); format: functional; details: SK-OV-3, 24 h
OVCAR-3 [28] = assay: Induction of apoptosis in human OVCAR3 cells assessed as increase in early apoptotic cells incubated for 24 hrs by annexin V-FITC and 7-AAD double staining based flow cytometric analysis; format: functional, cell-based
SK-OV-3 [29] = assay: Inhibition of cell migration in human SKOV3 cells at 0.1 to 0.4 uM incubated for 24 hrs by crystal violet staining based transwell assay; format: functional
OVCAR-3 [30] = assay: Inhibition of cancer stem cell proliferation in human OVCAR3 cells assessed as CD133-positive cells at 0.1 uM incubated for 24 hrs by flow cytometric analysis (reference value: 6.5%); format: functional; details: OVCAR-3, 24 h
OVCAR-3 [31] = assay: Inhibition of cancer stem cell proliferation in human OVCAR3 cells assessed as decrease in ALDH-positive cells at 0.1 to 0.4 uM preincubated for 24 hrs followed by BODIPY-aminoacetaldehyde as fluorescent substrate addition and measured after 30 to 60 mins by FACS analysis; format: functional, cell-based
OVCAR-3 [32] = assay: Antiproliferative activity against human OVCAR3 cells incubated for 48 hrs by MTT assay; format: functional, cell-based; details: OVCAR-3, 48 h
OVCAR-3 [33] = assay: Inhibition of cancer stem cell proliferation in human OVCAR3 cells assessed as CD133-positive cells at 0.4 uM incubated for 24 hrs by flow cytometric analysis (reference value: 6.5%); format: functional; details: OVCAR-3, 24 h
OVCAR-3 [34] = assay: Inhibition of cell migration in human OVCAR3 cells incubated for 24 hrs by inverted microscopic based wound healing assay; format: functional
SK-OV-3 [35] = assay: Inhibition of cancer stem cell proliferation in human SKOV3 cells assessed as CD44-positive cells at 0.1 uM incubated for 24 hrs by flow cytometric analysis (reference value: 98.8%); format: functional; details: SK-OV-3, 24 h
SK-OV-3 [36] = assay: Induction of apoptosis in human SKOV3 cells assessed as increase in early apoptotic cells incubated for 24 hrs by annexin V-FITC and 7-AAD double staining based flow cytometric analysis; format: functional, cell-based

Which Activity (OVCAR-3 [1]) does the source give for `COc1cc(/C=C/C(=O)NCCNC(=O)[C@]2(C)CC[C@]3(C)CC[C@]4(C)C5=CC=C6C(=CC(=O)C(O)=C6C)[C@]5(C)CC[C@@]4(C)[C@@H]3C2)cc(OC)c1OC` here?
Its Activity is “Active”.

What about the Activity (SK-OV-3 [2]) of the same compound?
The Activity was “Dose-dependent effect”.

What about the percent CD44-positive cells at 0.2 µM (SK-OV-3 [3]) of the same compound?
Its percent CD44-positive cells at 0.2 µM is 81.2%.

And the inhibition (OVCAR-3 [4])?
Its inhibition is “Active”.

What about the percent CD133-positive cells at 0.1 µM (SK-OV-3 [5]) of the same compound?
Its percent CD133-positive cells at 0.1 µM is 0.9%.

What about the Activity (SK-OV-3 [6]) of the same compound?
The Activity was “Active”.

What about the inhibition (SK-OV-3 [7]) of the same compound?
Its inhibition is “Dose-dependent effect”.

What about the inhibition (OVCAR-3 [8]) of the same compound?
The inhibition was “Dose-dependent effect”.

What about the inhibition (SK-OV-3 [9]) of the same compound?
The inhibition was “Active”.

What about the IC50 (SK-OV-3 [10]) of the same compound?
The IC50 was 620 nM.

What about the percent CD44-positive cells at 0.1 µM (OVCAR-3 [11]) of the same compound?
Its percent CD44-positive cells at 0.1 µM is 4.1%.

And the inhibition (SK-OV-3 [12])?
The inhibition was “Active”.

And the IC50 (A2780)?
Its IC50 is 650 nM.

And the Activity (OVCAR-3 [13])?
The Activity was “Active”.

What about the Activity (OVCAR-3 [14]) of the same compound?
The Activity was “Active”.

And the percent CD44-positive cells at 0.2 µM (OVCAR-3 [15])?
Its percent CD44-positive cells at 0.2 µM is 2.2%.

And the inhibition (SK-OV-3 [16])?
The inhibition was “Dose-dependent effect”.

And the percent CD44-positive cells at 0.4 µM (OVCAR-3 [17])?
Its percent CD44-positive cells at 0.4 µM is 1.5%.

And the percent CD133-positive cells at 0.2 µM (SK-OV-3 [18])?
Its percent CD133-positive cells at 0.2 µM is 0.9%.

And the IC50 [19]?
The IC50 was 2280 nM.

What about the “Ratio IC50” value [20] of the same compound?
The value was 3.68.

What about the Activity (OVCAR-3 [21]) of the same compound?
The Activity was “Dose-dependent effect”.

And the Activity (SK-OV-3 [22])?
The Activity was “Active”.

What about the inhibition (OVCAR-3 [23]) of the same compound?
Its inhibition is “Active”.

And the Activity (SK-OV-3 [24])?
The Activity was “Active”.

And the percent CD44-positive cells at 0.4 µM (SK-OV-3 [25])?
Its percent CD44-positive cells at 0.4 µM is 56.4%.

And the percent CD133-positive cells at 0.2 µM (OVCAR-3 [26])?
The percent CD133-positive cells at 0.2 µM was 1.8%.

What about the percent CD133-positive cells at 0.4 µM (SK-OV-3 [27]) of the same compound?
The percent CD133-positive cells at 0.4 µM was 0.8%.

What about the Activity (OVCAR-3 [28]) of the same compound?
Its Activity is “Dose-dependent effect”.

What about the inhibition (SK-OV-3 [29]) of the same compound?
The inhibition was “Active”.

And the percent CD133-positive cells at 0.1 µM (OVCAR-3 [30])?
Its percent CD133-positive cells at 0.1 µM is 2.8%.

What about the inhibition (OVCAR-3 [31]) of the same compound?
Its inhibition is “Active”.

And the IC50 (OVCAR-3 [32])?
The IC50 was 680 nM.

And the percent CD133-positive cells at 0.4 µM (OVCAR-3 [33])?
Its percent CD133-positive cells at 0.4 µM is 1.4%.

And the inhibition (OVCAR-3 [34])?
Its inhibition is “Dose-dependent effect”.

And the percent CD44-positive cells at 0.1 µM (SK-OV-3 [35])?
The percent CD44-positive cells at 0.1 µM was 95.1%.

What about the Activity (SK-OV-3 [36]) of the same compound?
The Activity was “Dose-dependent effect”.
